Tests used:
[1] = Miscibility and hydrogel formation of IKVAV PA / FGF2 PA binary systems (cryo-TEM, rheology); format: physicochemical; conditions: particularly at molar ratio 90:10
Method: For in vitro experiments: After lyophilization, PA powder was reconstituted in 150 mM NaCl and 3 mM KCl solution and adjusted to a pH of 7.4 using 1 μL additions of 1 M NaOH to ensure cell compatibility and material consistency. Different bioactive PAs were mixed at different mol % (see Table 3) and horn sonicated at 10% intensity, three times for 10 seconds. PA solutions were annealed at 80° C. for 30 min and then slowly cooled at 1° C. per minute to reach a final temperature of 27° C. using a thermocycler (Eppendorf PCR Thermocycler) for even and controlled heating and cooling of all samples. To prepare a PA coated substrate, 24-, 12-, or 6-well polystyrene cell culture plate or 12 mm and 18 mm glass coverslips (German Glass, Chemglass Life Science) were coated with poly-D-lysine (0.01 mg/mL, Sigma-Aldrich) for 3 h at 37° C. The plates were then rinsed with MilliQ water three times and allowed to dry for 4 h. PAs were painted on the coverslips or tissue culture plates by dragging a pipette (8-30 μL of annealed PAs (1 wt %)) to extrude a thin, even coating of material across the surface. PA coatings were incubated for 3 h at room temperature. The plates were gently rinsed with media before further use. For dye-labeled PAs experiments, Cy3-labeled-FGF2 PAs were co-assembled at 1 mol % with their corresponding non-labeled PA counterparts (see table 3).
Plunge-freezing for Cryo-TEM samples were prepared using a FEI model Vitrobot MarkIV (FEI). 7 μL of the sample solution ([PA]=0.05-0.1 wt % in H2O) was deposited on a plasma-cleaned TEM grid (300 mesh copper with lacey carbon, Electron Microscopy Sciences) and held in place with tweezers mounted on the Vitrobot. The specimen was blotted in an environment with 100% humidity at room temperature (blot force: 3, blot total: 1-2, wait time: 0.5-1 s, blot time: 3 s, drain time: 0-1 s), and plunged into a liquid ethane reservoir cooled by liquid nitrogen. The vitrified samples were stored in liquid nitrogen and then transferred to a Gatan 626 Cryo-TEM holder. Cryo-TEM images were obtained using a JEOL1230 electron microscope operating with a LaB6 filament at an accelerating voltage of 100 kV, equipped with a Gatan 831 CCD camera.
PA materials were prepared using the method described above for in vitro studies. An MCR302 Rheometer (Anton Paar) was used for all rheological studies. The instrument stage was set to 37° C. to simulate in vitro and in vivo conditions. The PA solution (150 μL) was placed on the sample stage and 30 μL of 25 mM CaCl2) solution was pipetted onto the underside of a 25 mm cone plate positioned above the material. […] The storage and loss modulus (G′ and G″) were recorded after a plateau occurred.

[2] = test system: murine model of severe spinal cord injury (SCI); assay: Corticospinal tract (CST) axon regrowth after SCI (BDA tracing); format: in vivo, mouse; conditions: 12 weeks after injury, BDA-labeled axons
Method: All experiments were conducted at the Simpson Querrey Institute at Northwestern University. 182 CD1 mice (Charles River) were subjects of this study (N=38 Sham, N=38 IKVAV PA2 alone, N=38 IKVAV PA2+FGF2 PA1, N=38 IKVAV PA2+FGF2 PA2, N=12 IKVAV PA1, N=12 Backbone PA, N=6 IKVAV PA4). The age of animals used in the study was in the range of 10-16 weeks. 8 independent in vivo experiments were carried out (injury+PA injection) and each of the 8 experiments had animals of the exact same age which were injected with at least the 4 main treatment groups: Sham, IKVAV PA2 alone, IKVAV PA2+FGF2 PA1, and IKVAV PA2+FGF2 PA2. Animals were anesthetized using 2.5% isoflurane gas with oxygen. A laminectomy was performed to expose the spinal cord at the T10-T11 spinal level. A severe contusive injury was performed using the Infinite Horizon Spinal Cord Impactor system (IH-0400 Precision Systems and Instrumentation) with 85 kdyn of impact force and a dwell time of 60 s. After the lesion, the skin was sutured using 9 mm wound clips (BD Biosciences) and the animals were recovered on a heating pad to maintain body temperature. Bladders were manually expressed daily during the entire 12 weeks of the experiment.
PAs (dissolved in sterile NaCl 0.9% solution at 1 wt %) were injected 24 h after SCI using a glass capillary micropipette (Sutter Instruments, Novato, CA) (outer diameter, 100 m) coated with Sigmacote (Sigma-Aldrich) to reduce surface tension as described elsewhere (19). The capillaries were loaded onto a Hamilton syringe using a female Luer adaptor (World Precision Instruments) controlled by a Micro4 microsyringe pump controller (World Precision Instruments). Under isoflurane anesthesia, autoclips were removed and the injury site was exposed. At 24 h post injury, the laminectomy in the spinal column was still intact and the bruise created by the lesion was visible. A stereotaxic Kopf apparatus was used to position the micropipette just dorsal to the lesion. The micropipette was lowered to a depth of 750 m measured from the dorsal surface of the cord, and 4-6 μL of the diluted amphiphile solution was injected at 1 L/min. […]
Axons labeled using BDA (Thermofisher, N7167) or stained with 5HT (Abcam) were quantified using Imaris® software version 9.3 as previously described (21). Lines were drawn across longitudinal spinal cord sections from the proximal border (PB) to the distal border (DB) of the SCI lesion at consistent distances and the number of axons intercepting the lines drawn was counted by researchers that were blinded to the experimental conditions. Multiple sections through the middle of the cord, where BDA or 5HT staining was denser, were counted per mouse and expressed as total intercepts per location, per animal. […]

| miscibility and hydrogel formation when mixed with FGF2 PA1 or FGF2 PA2 [1] | Substance | CST axon regrowth within the lesion [2] |
| --- | --- | --- |
| immiscibility | C16-VAG2E4GIKVAV [IKVAV PA4] | intermediate level of axon regrowth |
| immiscibility | C16-V2A2E4GIKVAV [IKVAV PA1] | some regrowth of axons |
| immiscibility | C16-G4E4GIKVAV [IKVAV PA5] |  |

| Substance | miscibility and hydrogel formation when mixed with FGF2 PA1 or FGF2 PA2 [1] | CST axon regrowth within the lesion [2] |
| --- | --- | --- |
| C16-A2G2E4GIKVAV [IKVAV PA2] | both miscible and could form hydrogels with similar mechanical properties | modest, but increased axon regrowth |
